This note sets out measurements from ChEMBL document CHEMBL1955866, “New cyclic peptides with osteoblastic proliferative activity from Dianthus superbus” (Bioorg Med Chem Lett, 2012).

Where a SMILES comes first, the peptide text is derived from it.

What all share (assay type): functional, cell-based
Assay [1] is described as follows: Osteoblastic proliferative activity in […] MC3T3-E1 cells at 10^-2 mM by MTT assay. (In general: Tetrazolium dyes change colour on reduction, which living cells bring about.)
Assay [2] is described as follows: Osteoblastic proliferative activity in […] MC3T3-E1 cells at 10^-3 mM by MTT assay.
Assay [3] is described as follows: Osteoblastic proliferative activity in rat MC3T3-E1 cells at 10^-4 mM by MTT assay.
Assay [4] is described as follows: Osteoblastic proliferative activity in […] MC3T3-E1 cells at 10^-5 mM by MTT assay.
Assay [5] in a line: Osteoblastic proliferative activity in […] MC3T3-E1 cells at 10^-6 mM by MTT assay.

The molecule `[F-].[Na+]` returned an Activity in assay [1] of 46.2%.
Regarding `CC(C)C[C@@H]1NC(=O)[C@H]([C@@H](C)O)NC(=O)[C@H](CC(C)C)NC(=O)[C@@H]2CCCN2C(=O)CNC(=O)[C@H](Cc2ccccc2)NC1=O` (cyclo(FGPLTL)), the Activity in assay [1] stood at 13.7%; in assay [2], 3.9%; in assay [3], 21.7%; in assay [4] it was 38.2%; in assay [5], 25.4%.
Taken in the same sequence, the figures for `CC[C@H](C)[C@@H]1NC(=O)[C@H]([C@@H](C)O)NC(=O)[C@H](C(C)C)NC(=O)[C@@H]2CCCN2C(=O)CNC(=O)[C@H](Cc2ccccc2)NC1=O` (cyclo(FGPVTI)) were 22.5%, 17%, 26.3%, 33.9% and 17.2%.
